# Experimental data taken from the OPERA property sets (Mansouri et al. 2018).
# Where a SMILES comes first, the peptide text is derived from it.
row,SMILES,logP
1,CC(=O)NC(CC(C)C)C(=O)NC(CCCCN)C(=O)NC(Cc1ccccc1)C(N)=O (stereo not drawn) (Ac-Leu-Lys-Phe-NH2; configuration not given here),1.14
2,COc1ccc2cc(C(C)C(=O)OCC(=O)N(C)C)ccc2c1 (centres undefined),2.05
3,O=[N+]([O-])c1ncn[nH]1,-0.33
4,CN1CCN(Cc2ccc(Cl)nc2)C1=N[N+](=O)[O-],0.26
5,CC(=O)C1(O)C(C)CC2C3CCC4=CC(=O)C=CC4(C)C3(F)C(O)CC21C (centres undefined),2.35
6,CCC1(CC)OCC(c2ccc(NC(=O)N(C)C)cc2C)CO1,2.76
7,Cc1ccc(SCCNc2ccccc2C(N)=O)cc1,3.15
8,FC(F)(F)C1(F)C(F)(F)C(F)(F)C(F)(N2C(F)(F)C(F)(F)C(F)(F)C(F)(F)C2(F)F)C(F)(F)C1(F)F (centres undefined),7.1
9,CCN(C)N=Nc1ccccc1C(N)=O,2.59
10,Nc1ncnc2c1ncn2C1OC(CO)CC1O (centres undefined),-0.61
11,CCCOc1ccccc1NC(=O)OCCN1CCOCC1,2.78
12,CCC(=O)C1(c2cccc(OC(C)=O)c2)CCN(C)CC1,1.05
13,COCCCNc1nc(NC(C)C)nc(SC)n1,2.82
14,O=C(Cc1ccccc1)Nc1cccc(C(F)(F)F)c1,3.84
15,CC(C)(C)C(COc1ccc(C(F)(F)F)cc1)OC(=O)n1ccnc1 (centres undefined),4.15
16,Nc1nc(Sc2ccc(Cl)cc2)nc(C(Cl)(Cl)Cl)n1,4.51
17,CCCCCCCOc1ccccc1NC(=O)OCCN1CCOCC1,4.51
18,CC(=O)NC(CCCCN)C(=O)NC(Cc1ccccc1)C(=O)NC(C(N)=O)C(C)C (centres undefined),0.51
19,CCC(=O)c1ccc2c(c1)N(CC(C)N(C)C)c1ccccc1S2 (centres undefined),4.79
20,CC(C)C(=O)Nc1cc(C(F)(F)F)ccc1S(N)(=O)=O,2.45
21,CCCCCOC(=O)C(C(=O)OCCCCC)=C1SCCS1,5.6
22,CN(C)CCn1nnnc1SCC1=C(C(=O)OCOC(=O)C(C)(C)C)N2C(=O)C(NC(=O)Cc3csc(N)n3)C2SC1 (centres undefined),1.57

row,SMILES,logP
1,Cc1ncc(CO)c(COCCC(C)C)c1O,0.83
2,Cc1nc(Br)c([N+](=O)[O-])n1C,0.87
3,"Cc1ccccc1CO[C@H]1C[C@]2(C(C)C)CC[C@@]1(C)O2 (single isomer, unassigned)",4.62
4,Clc1ccc(-c2c(Cl)c(Cl)cc(Cl)c2Cl)cc1Cl,7.2
5,Cc1cccc(C)c1N,1.84
6,CN(C)N=Nc1ccc(CC(=O)O)cc1,1.38
7,O=C(NCCCCO)C(F)(F)Cn1ccnc1[N+](=O)[O-],-0.29
8,COc1cc(OCc2ccccc2CCCN2CCC(O)CC2)cc(OC)c1OC,2.6
9,CC(O)CNC(=O)C(F)(F)Cn1cnc([N+](=O)[O-])n1 (centres undefined),-0.47
10,CC1COC(Cn2cncn2)(c2ccc(Oc3ccc(Cl)cc3)cc2Cl)O1 (centres undefined),4.3
11,Nc1ncnc2c1nc(F)n2C1CCC(CO)O1 (centres undefined),-0.03
12,CC(C)(C)C(COc1ccc(S(C)(=O)=O)cc1)OC(=O)n1ccnc1 (centres undefined),2.59
13,C#CCC(O)(c1cccnc1)c1ccc(Cl)c(Cl)c1 (centres undefined),2.42
14,CC(=O)OC1C(=O)C2(C)C(O)CC3OCC3(OC(C)=O)C2C(OC(=O)c2ccccc2)C2(O)CC(OC(=O)C(O)Cc3ccccc3)C(C)=C1C2(C)C (centres undefined),2.9
15,OCc1ccc(O)c2ncccc12,1
16,C=Cc1ncc([N+](=O)[O-])n1C,0.62
17,Nc1nc(=O)n(C2CCC(CO)O2)cc1I (centres undefined),-0.31
18,CC(=O)c1ccc(O)c2ncccc12,1.8
19,CC1NC(=O)C(CC(=O)NC(Cc2cn(C(=O)OCc3ccccc3)c3ccccc23)C(=O)NC(Cc2ccccc2)C(=O)N(C)Cc2ccccc2)NC1=O (centres undefined),5.66
20,Cc1ccc(NC(=O)c2[nH]nc(C)c2[N+](=O)[O-])cc1,2.34
21,CCOC(=O)Cc1ccc(O)c2ncccc12,2.26
22,O=C1CC(Sc2ccncc2)N1 (centres undefined),0.61

row,SMILES,logP
1,CO[C@@]1(NC(=O)C(C(=O)O)c2ccc(O)cc2)C(=O)N2C(C(=O)O)=C(CSc3nnnn3C)CO[C@@H]21 (some centres undefined),-0.58
2,CC1(C)CCC(C)(C)N1[O],1
3,CC(=O)Nc1ccnnc1,-0.41
4,CC(C)OC(=O)n1cc(F)c(=O)[nH]c1=O,0.2
5,COCC(O)Cn1cc([N+](=O)[O-])nn1 (centres undefined),-0.36
6,CCCCCCOc1cccc(NC(=O)OCCN2CCOCC2)c1,4.73
7,Nc1ccc(Oc2ccc(N)cc2)cc1,1.36
8,CC1CC2C3CCC4=CC(=O)C=CC4(C)C3(F)C(O)CC2(C)C1(O)C(N)=O (centres undefined),1.41
9,CCC(=O)C1(c2cccc(OC(=O)OC)c2)CCN(C)CC1,0.75
10,CCOc1ccc(C(=O)O)cc1OCC,2.37
11,CCN1CCN(C(=O)N[C@@H](C(=O)N[C@@H]2C(=O)N3[C@@H]2SC(C)(C)[C@@H]3C(=O)O)c2ccccc2)C(=O)C1=O,0.5
12,CCCCCc1ccc(OCC(OC(=O)n2ccnc2)C(C)(C)C)cc1 (centres undefined),5.26
13,O=C(NCCCO)C(F)(F)Cn1ccnc1[N+](=O)[O-],-0.64
14,N#CC(C#N)=NNc1c(Cl)cccc1Cl,4.51
15,NC(=O)C(=Cc1ccc([N+](=O)[O-])o1)c1ccco1,0.15
16,CCCCCOc1ccccc1NC(=O)OCCN1CCOCC1,3.7
17,Nc1ccc2c(c1)C(=O)N(O)C2=O,0.16
18,CCC(CC)C(=O)NS(=O)(=O)c1ccc(C(F)(F)F)cc1N,3.04
19,CCC(=O)C1(c2cccc(OC(=O)OC(C)C)c2)CCN(C)CC1,1.72
20,CCCCCC(=O)OCCOCn1cnc2c(=O)[nH]c(N)nc21,0.93
